In PubChem BioAssay (NCI):
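Where inhibition never reached the appropriate level, the endpoint shown equals the highest concentration tested. Otherwise, values were interpolated linearly from a five-concentration, 48-hour dose response in 96-well plates. TGI is the concentration that stops growth completely.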

What was measured:
Assay in all cases: NCI tumour cell line growth inhibition, 48 h
[1] = test system: U251 CNS
[2] = test system: SK-MEL-2 melanoma
[3] = test system: SF-295 CNS
[4] = test system: KM12 colon
[5] = test system: HL-60(TB) leukemia
[6] = test system: HCT-15 colon
[7] = test system: COLO 205 colon
[8] = test system: SF-268 CNS
[9] = test system: EKVX NSCLC
[10] = test system: TK-10 renal
[11] = test system: NCI-H460 lung
[12] = test system: SNB-78 CNS
[13] = test system: SW-620 colon
[14] = test system: UO-31 renal
[15] = test system: MOLT-4 leukemia
[16] = test system: SR leukemia
[17] = test system: OVCAR-4 ovarian
[18] = test system: SK-MEL-28 melanoma
[19] = test system: A549 NSCLC
[20] = test system: SK-MEL-5 melanoma
[21] = test system: NCI-H522 lung
[22] = test system: SN12C renal
[23] = test system: CCRF-CEM leukemia
[24] = test system: M14 melanoma
[25] = test system: 786-0 renal
[26] = test system: IGROV1 ovarian
[27] = test system: M19-MEL melanoma
[28] = test system: DMS 273 small cell lung
[29] = test system: K-562 leukemia
[30] = test system: LXFL 529 NSCLC
[31] = test system: OVCAR-8 ovarian
[32] = test system: ACHN renal
[33] = test system: SNB-19 CNS
[34] = test system: NCI-H226 lung
[35] = test system: LOX IMVI melanoma
[36] = test system: DMS 114 small cell lung
[37] = test system: DLD-1 colon
[38] = test system: RXF 393 renal
[39] = test system: HCT-116 colon
[40] = test system: UACC-62 melanoma
[41] = test system: KM20L2 colon
[42] = test system: HCC-2998 colon
[43] = test system: HOP-62 NSCLC
[44] = test system: HT29 colon
[45] = test system: OVCAR-3 ovarian
[46] = test system: XF 498 CNS
[47] = test system: SF-539 CNS
[48] = test system: SK-OV-3 ovarian
[49] = test system: NCI-H23 lung
[50] = test system: RPMI-8226 leukemia
[51] = test system: OVCAR-5 ovarian
[52] = test system: SNB-75 CNS
[53] = test system: MALME-3M melanoma
[54] = test system: HOP-92 NSCLC
[55] = test system: CAKI-1 renal

Work on CN(C)CCNC(=O)c1ccc(Cl)c2c(Nc3ccc(S(=O)(=O)N=C(N)N)cc3)c3ccccc3nc12 yielded a TGI [1] of 16.4 µM, a TGI [2] of 24.5 µM and a TGI [3] of 15.2 µM. It also gave a TGI [4] of 20.7 µM, a TGI [5] of 6.27 µM and a TGI [6] of 18.6 µM. For the same compound, the TGI [7] was 17.9 µM, the TGI [8] was 19.7 µM and the TGI [9] was 27.5 µM. For the same compound, the TGI [10] was 38.7 µM, the TGI [11] was 10.2 µM and the TGI [12] was 48.1 µM. For the same compound, the TGI [13] was 14.9 µM, the TGI [14] was 3.23 µM and the TGI [15] was 2.66 µM. It also gave a TGI [16] of 9.06 µM, a TGI [17] of 5.24 µM and a TGI [18] of 26.6 µM. The TGI [19] was 17.2 µM, the TGI [20] was 25.5 µM and the TGI [21] was 3.79 µM. The TGI [22] was 16.6 µM, the TGI [23] was 16.9 µM and the TGI [24] was 53.6 µM. The TGI [25] was 35 µM, the TGI [26] was 18.5 µM and the TGI [27] was 17.3 µM. For the same compound, the TGI [28] was 8.63 µM, the TGI [29] was 16.9 µM and the TGI [30] was 18.4 µM. The TGI [31] was 15.2 µM, the TGI [32] was 18 µM and the TGI [33] was 6.6 µM. It also gave a TGI [34] of 6.67 µM, a TGI [35] of 5.5 µM and a TGI [36] of 7.98 µM. For the same compound, the TGI [37] was 18.4 µM, the TGI [38] was 19.3 µM and the TGI [39] was 17.8 µM. The TGI [40] was 20.3 µM, the TGI [41] was 19.2 µM and the TGI [42] was 21.3 µM. It also gave a TGI [43] of 26.4 µM, a TGI [44] of 10.3 µM and a TGI [45] of 30.6 µM. It also gave a TGI [46] of 27.1 µM and a TGI [47] of 14.7 µM.
Compound COc1ccc2c(c1)O[C@@H]1c3ccc(OC)cc3OC[C@H]21 has a TGI [1] greater than 100 µM, a TGI [2] of 89.6 µM and a TGI [3] greater than 100 µM. It also gave a TGI [4] greater than 100 µM, a TGI [5] greater than 100 µM and a TGI [6] greater than 100 µM. The TGI [8] was greater than 100 µM, the TGI [10] was greater than 100 µM and the TGI [48] was greater than 100 µM. It also gave a TGI [11] of 82 µM, a TGI [12] greater than 100 µM and a TGI [13] greater than 100 µM. For the same compound, the TGI [49] was greater than 100 µM, the TGI [50] was greater than 100 µM and the TGI [14] was 77.6 µM. The TGI [15] was 50.3 µM, the TGI [16] was 97.5 µM and the TGI [17] was greater than 100 µM. For the same compound, the TGI [18] was greater than 100 µM, the TGI [19] was greater than 100 µM and the TGI [20] was 39.2 µM. For the same compound, the TGI [51] was greater than 100 µM, the TGI [21] was 51.6 µM and the TGI [22] was greater than 100 µM. For the same compound, the TGI [23] was 80.5 µM, the TGI [24] was greater than 100 µM and the TGI [25] was 72.1 µM. For the same compound, the TGI [52] was 51.4 µM, the TGI [26] was greater than 100 µM and the TGI [27] was greater than 100 µM. For the same compound, the TGI [53] was greater than 100 µM, the TGI [28] was greater than 100 µM and the TGI [29] was 57.3 µM. The TGI [30] was greater than 100 µM, the TGI [31] was greater than 100 µM and the TGI [32] was greater than 100 µM. The TGI [33] was greater than 100 µM, the TGI [34] was 69.6 µM and the TGI [35] was 83.7 µM. For the same compound, the TGI [54] was 79.7 µM, the TGI [36] was 58.9 µM and the TGI [37] was greater than 100 µM. The TGI [38] was 51 µM, the TGI [39] was greater than 100 µM and the TGI [40] was greater than 100 µM. The TGI [42] was greater than 100 µM, the TGI [43] was greater than 100 µM and the TGI [55] was greater than 100 µM. For the same compound, the TGI [45] was greater than 100 µM, the TGI [46] was greater than 100 µM and the TGI [47] was greater than 100 µM.
